Where two headings read alike, the source gives them in different places.
Tests used:
[1] = Cytotoxicity assay, Vero cells (CellTiter-Glo); type: cell-based; settings: African green monkey, mean ± SD
Protocol: Vero cells, obtained from the Rio de Janeiro Cell Bank (BCRT code 0245) and maintained through weekly subculturing with a dissociation solution containing 0.25% trypsin-EDTA, initiated once the monolayer reached an 80–100% confluence. Following harvesting, the cells were washed and resuspended in RPMI 1640 medium enriched with 10% fetal bovine serum (FBS). Cultures were maintained at 37 °C in a 5% CO2-humidified incubator. These cultures were used for drug screening assays and for producing culture-derived trypomastigotes of T. cruzi.
Cytotoxicity assays were performed using Vero cells, which were seeded at a density of 1.5 × 10^4 cells per well in white 96-well plates with clear bottoms. Following a 24 h adhesion period, the cultures were incubated at 37 °C in a 5% CO2 atmosphere. […] After 72 h of incubation, cell viability was assessed by adding CellTiter-Glo reagent (Promega Corporation, Madison, WI, USA), which induces cell lysis and reacts with the released ATP to produce luminescence. The resulting luminescence was measured using a Glomax Multi-Detection plate reader (Promega Corporation, Madison, WI, USA). The half-maximal inhibitory concentration (CC50) for cell viability was then calculated using GraphPad Prism software version 8.2.1.

[2] = system: T. cruzi Dm28c-Luc intracellular amastigotes; assay: Anti-T. cruzi in vitro assay, intracellular amastigotes in Vero cells (luminescence); type: cell-based, Trypanosoma cruzi; settings: for IC50: Vero
Protocol: The genetically modified Trypanosoma cruzi, clone Dm28c (TcI), expressing luciferase (Dm28c-Luc), was kindly provided by Dr. Cristina Henriques from Oswaldo Cruz Institute—Fiocruz. The parasites were maintained using Vero cell cultures in RPMI 1640 medium enriched with 10% FBS. At 4 days post-infection (dpi), the trypomastigotes released into the culture supernatant were harvested, subjected to centrifugation at 800× g for 20 min at 4 °C, and quantified with a Neubauer chamber. The isolated trypomastigotes were subsequently used for phenotypic screening, drug efficacy assessments employing a 3D cardiac model, washout experiments to evaluate reversibility, drug combination studies, and enzymatic assays.
To evaluate the effect of pyrazole-imidazoline derivatives against intracellular amastigotes, Vero cells (1.5 × 10^4 cells/well) were cultured in a white 96-well plate with a clear bottom and subsequently infected with T. cruzi Dm28c-Luc at a 10:1 parasite-to-host cell ratio for 24 h. […] Parasite viability was measured by luminescence following the addition of luciferin (300 µg/mL). Background measurements (non-infected cultures incubated with luciferin, as well as luciferin-only controls) were performed to ensure the signal specifically originates from viable parasites. The IC50 and IC90 values, denoting the concentrations that achieve 50% and 90% reductions in viable parasites, respectively, were calculated using GraphPad Prism 8.2.1 software. Additionally, the selectivity index (SI) was calculated as the cytotoxic concentration (CC50) ratio in mammalian cells to the IC50 against T. cruzi, providing insight into the therapeutic window. Potency against intracellular amastigotes was evaluated using the formula 6—Log10 (IC50).

[3] = Cytotoxicity in 3D cardiac spheroids (CellTiter-Glo); type: cell-based; settings: Swiss Webster, mouse, 3D cardiac spheroids from fetal heart muscle cells, 15.6 to 500 µM
Protocol: Three-dimensional (3D) heart muscle cell cultures were obtained as previously described. Briefly, heart muscle cells were isolated from 18-day-old Swiss Webster mouse fetuses. The ventricular tissue was fragmented and enzymatically dissociated using a trypsin and collagenase type II solution. The isolated cells were seeded at a density of 2.5 × 10^4 cells/well in 96-well U-bottom microplates previously coated with 1% agarose. The cells were cultured in Dulbecco’s modified Eagle Medium (DMEM) enriched with 10% FBS, 2.5 mM CaCl2, 1 mM L-glutamine, 2% chicken embryo extract, and a cocktail of antibiotics. The cultures were maintained at 37 °C in a 5% CO2 atmosphere. After a 7-day culture period, the resulting fully developed spheroids were used to assess drug-induced cardiotoxicity and evaluate their efficacy against T. cruzi. […]
The cytotoxicity of the promising candidate was assessed using 3D cardiac spheroids, seeded at 2.5 × 10^4 cells per well. The cultures were treated with a series of concentrations as previously described, and the cell viability was measured using luminescence following the addition of CellTiter-Glo reagent (Promega Corporation, Madison, WI, USA). […] The data shown represents the mean value accompanied by standard deviations, calculated from at least three independent experiments, each performed in duplicate.

[4] = system: T. cruzi (Dm28c-Luc); assay: Reversibility (washout) assay in T. cruzi-infected Vero cells; type: cell-based, Trypanosoma cruzi; settings: for parasite load of cell monolayer at 21 dpi (luminescence): untreated 5 × 10^5 A.L.U
Protocol: After treatment, the cultures were thoroughly washed, and parasite recrudescence was evaluated over an extended period of 10 days in RPMI medium supplemented with 10% fetal bovine serum (FBS). Culture supernatants were collected at intervals, and the luminescence signal indicative of trypomastigote release was assessed using a Glomax Multi-Detection plate reader (Promega Corporation, Madison, WI, USA) following the addition of luciferin every 2–3 days. At the experiment’s conclusion, the infection profile of the monolayer was also examined. Cells were fixed with PFA for 20 min at 4 °C, then stained with DAPI for microscopy analysis. Luminescence data were expressed in arbitrary luminescent units (A.L.U), and fluorescence images were acquired using the ImageXpress Micro XLS high-content screening (HCS) system (Molecular Devices, Sunnyvale, CA, USA).

[5] = system: intracellular amastigotes of T. cruzi; assay: Drug combination with Bz, fixed-ratio isobologram, intracellular amastigotes; type: cell-based; settings: Trypanosoma cruzi; proportion 1k:Bz 5:0, 72 h; read-out: IC50 (Mean ± DP) in combination assay
Protocol: The isobologram approach assessed the interaction between Bz and the promising candidate in intracellular amastigotes of T. cruzi. Vero cell cultures infected with T. cruzi (Dm28c-Luc) were treated for 72 h with various concentrations of combinations of Bz and the promising candidate, specifically at ratios of 5:0; 4:1; 3:2; 2:3; 1:4 and 0:5. The maximum concentration of each compound was established based on their IC50 values, ensuring both reached the fourth dilution in the serial dilution setup (1:3), culminating in a total of seven dilutions. After 72 h of treatment, parasite viability was measured by luminescence in a Glomax Multi-Detection plate reader (Promega Corporation, Madison, WI, USA) after incubation with luciferin. The IC50 values of each treatment combination were calculated individually, and the fractional inhibitory concentration index (FICI) was derived using the formula FICI = IC50 of the combination/IC50 of the compound alone. The overall FICI (ΣFICI) was calculated by summing the FICIs for both compounds in each combination group, while the average ΣFICI (xΣFICI) represented the overall mean across all combination groups. The xΣFICI values were then employed to classify the interaction as synergistic (xΣFICI ≤ 0.5), additive (0.5 < xΣFICI < 4), or antagonistic (xΣFICI > 4). […]

Question: Which results are given for `FC(F)(F)c1ccc(-n2cc(C3=NCCN3)cn2)cc1` [1k, 1-(4-trifluoromethylphenyl)-4-(4,5-dihydro-1H-imidazol-2-yl)-1H-pyrazole]?
Answer: CC50 at 72 h [1]: 244 ± 21.1 µM; SI (selectivity index = CC50/IC50) ([2]; CC50 Vero cells / IC50 intracellular amastigotes): 73.9; IC50 ([2]; Trypanosoma cruzi, 72 h, Dm28c-Luc in Vero cells, mean ± SD, read-out: Intracellular Amastigotes IC50): 3.3 ± 0.2 µM; IC50 ([2]; Trypanosoma cruzi, intracellular amastigotes, 6 − Log10(IC50), read-out: pIC50 (potency) (converted)): 3.98 µM; IC90 ([2]; Trypanosoma cruzi, 72 h, Dm28c-Luc in Vero cells, mean ± SD): 28.1 ± 0.4 µM; enhancement in anti-T. cruzi activity relative to the hit compound ([2]; hit compound = 5-amino-pyrazole-imidazoline): 5 fold; CC50 at 72 h [3]: 173 ± 6.8 µM; parasite load of cell monolayer at 21 dpi (luminescence) ([4]; 28.8 µM): 4 × 10^4 A.L.U; parasite load of cell monolayer at 21 dpi (luminescence) ([4]; 57.6 µM): 1.1 × 10^4 A.L.U; sterility of cultures in reversibility assay ([4]; 10 days treatment, tested conditions): failed to achieve sterility; inhibition at 28.8 µM ([4]; Trypanosoma cruzi, Vero, 240 h, 28.8 µM (IC90), 10 days treatment + 10 days washout, read-out: inhibition of parasite load of cell monolayer at 21 dpi): 92%; IC50 [5]: 3.75 ± 0.35 µM

Source: PMC12348844, “Anti-Trypanosoma cruzi Potential of New Pyrazole-Imidazoline Derivatives” (Molecules, 2025)
